Results reported in PubChem BioAssay (NCI).
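Step 1: Grow cells in 96-well plates. Step 2: Expose to compound for 48 hours at 5 concentrations. Step 3: Interpolate endpoints linearly; if unreached, use highest concentration. Abbreviation: GI50, concentration required for 50% inhibition of growth. The concentration for full growth arrest is given as TGI.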

What follows are compounds tested on LOX IMVI melanoma (assay: NCI-60 cell line screen, 48 h).
CCOC(=O)c1c(C)n(Cc2ccc(Cl)cc2Cl)c2c1c(CN(C)C)c(O)c1[nH]cnc12 was tested, and the GI50 was 15.7 µM and the TGI was 29.1 µM.
For CCOc1ccccc1NC(=O)CC(C(=O)OC)C(=O)C(=O)OC (stereo not given), the TGI was over 100 µM.
For C[C@@]12CC=C3c4nc(Nc5cccc(O)c5)sc4CC[C@]3(C)[C@H]1CC[C@]1(C)C(=O)CC[C@@H]21, the GI50 was 1.67 µM and the TGI was 3.15 µM.
For CN1C(=O)c2cccc3cc([N+](=O)[O-])cc(c23)C1=O, the TGI was over 10 µM.
COC(=O)C1=C(C)N(NC(=O)OC(C)(C)C)C(=O)C1=P(c1ccccc1)(c1ccccc1)c1ccccc1 showed a TGI of over 100 µM.
O=C1OC(c2ccccc2)=N/C1=C\c1cccc2ccccc12 was tested, and the TGI was over 100 µM.
With C[C@@H]1CC(=O)C2CCCC1C2=O (stereo not given in full) the TGI was over 100 µM.
c1ccc(CNn2nnc3ccccc32)cc1 showed a TGI of over 100 µM.
Compound CN1c2ccc(Cl)cc2C(=O)NC1c1ccc([N+](=O)[O-])s1 (stereo not given) has a TGI of 28.8 µM.
Oc1cccnc1CN1CCCCC1 gave a TGI of over 100 µM.

These compounds were tested on MDA-MB-231 breast (assay: NCI-60 cell line screen, 48 h).
Work on CN1CCN(CCCOc2ccc3nc(Nc4ccc(Cl)c(C(F)(F)F)c4)ccc3c2)CC1 yielded a GI50 of 7.59 µM and a TGI of 23.1 µM.
With OC[C@H]1CCCC1O (stereo not given in full) the TGI was over 100 µM.
With O=C1OC(C(O)CO)C(=O)C1=O (stereo not given) the GI50 was 2720 µM and the TGI was over 10000 µM.
C=C1C(=O)O[C@H]2[C@H]1CC/C(COC(=O)C(=O)c1cn(Cc3ccccc3)c3ccccc13)=C\CC[C@@]1(C)O[C@@H]21 showed a GI50 of 2.17 µM and a TGI of 5.01 µM.
In the case of COC(C(O)CO)C(O)C(O)C(=O)NNc1ccccc1 (stereo not given), the TGI is reported as over 100 µM.
COc1cc2nc3cc([N+](=O)[O-])ccc3c(NCCCNCCO)c2cc1OC showed a GI50 of 0.13 µM and a TGI of 0.374 µM.
Compound CCOC(=O)c1c(C)n(Cc2ccc(Cl)cc2Cl)c2c1c(CN(C)C)c(O)c1[nH]cnc12 has a GI50 of 16.3 µM and a TGI of 31.9 µM.
Work on C[C@@]12CC=C3c4nc(Nc5cccc(O)c5)sc4CC[C@]3(C)[C@H]1CC[C@]1(C)C(=O)CC[C@@H]21 yielded a GI50 of 3 µM and a TGI of 15 µM.
CN1C(=O)c2cccc3cc([N+](=O)[O-])cc(c23)C1=O showed a TGI of over 10 µM.
Compound CN1c2ccc(Cl)cc2C(=O)NC1c1ccc([N+](=O)[O-])s1 (stereo not given) has a TGI of 33.1 µM.
For Oc1cccnc1CN1CCCCC1, the TGI was over 100 µM.

Each compound was assayed on NCI-H226 lung (assay: NCI-60 cell line screen, 48 h).
With Cc1nc(N)sc1C(=O)/C=C\c1ccc2c(c1)OCO2 the TGI was over 100 µM.
In the case of CN1CCN(CCCOc2ccc3nc(Nc4ccc(Cl)c(C(F)(F)F)c4)ccc3c2)CC1, the GI50 is reported as 22.2 µM and the TGI is reported as 57.1 µM.
CC1(C)SCc2nc3ncccc3n21 showed a TGI of over 100 µM.
Work on Cn1c(=O)c(C(c2ccc([N+](=O)[O-])cc2)c2c(O)c3ccccc3n(C)c2=O)cc2ccccc21 (stereo not given) yielded a TGI of 64 µM.
In the case of Cc1cn(C2CC(O)C(CO)O2)c(=O)n2nnnc12 (stereo not given), the TGI is reported as over 100 µM.
COc1ccc(C(=O)C(C(=O)CCC(=O)Nc2cccc(Cl)c2)c2ccc(OC)cc2)cc1 (stereo not given) gave a TGI of over 100 µM.
Work on CCOC(=O)C1=C(C)N(NC(=O)Nc2ccccc2)C(=O)C1=P(c1ccccc1)(c1ccccc1)c1ccccc1 yielded a TGI of over 100 µM.
For COc1cc(C=C2C(=O)NC(=O)NC2=O)cc(OC)c1OC, the TGI was over 100 µM.
Nn1c(=O)n(Cc2ccccc2)n(-c2ccccc2)c1=O was tested, and the TGI was over 100 µM.
With OC[C@H]1CCCC1O (stereo not given in full) the TGI was over 100 µM.
With N#CCN1C(=O)c2cccc3cc([N+](=O)[O-])cc(c23)C1=O the TGI was 62.4 µM.
For O=C1CCN2C(=O)CCN12, the TGI was over 100 µM.
O=C1OC(C(O)CO)C(=O)C1=O (stereo not given) gave a GI50 of over 10000 µM and a TGI of over 10000 µM.
Clc1nc(Cl)c(Cl)c(-c2ccccc2)n1 showed a TGI of 65.4 µM.
CC1CC[C@]2(C(=O)O)CCC3(C)C(=CC(=O)C4[C@@]5(C)CCC(=O)C(C)(C)C5CC[C@]43C)[C@@H]2[C@H]1C (stereo not given in full) gave a TGI of 92.6 µM.
CC(C)C(Nc1c2ccccc2nc2ccccc12)C(=O)O (stereo not given) gave a TGI of over 100 µM.
COc1ccccc1CCc1cc(OC)c(OC)c(OC)c1 showed a TGI of over 100 µM.
COc1cc2c(cc1OC)C(CC(=O)NN=C(C)C)NCC2 (stereo not given) gave a TGI of over 100 µM.
COC(=O)/C(=N\Nc1nnc(C)n1N)C(C#N)c1ccc(Cl)cc1 (stereo not given) was tested, and the TGI was over 100 µM.
Cc1cccc(NC(=O)C(=O)C(C(=O)c2ccc3ccccc3c2)C2OC(=O)c3ccccc32)c1C (stereo not given) showed a TGI of 8.74 µM.
CS/C(N)=N\NC(=O)CCC(=O)Nc1ccccc1C(F)(F)F showed a TGI of over 100 µM.
CC(C)(C)c1ccc2c(c1)S(=O)(=O)Nc1ccccc1NS(=O)(=O)c1cc(C(C)(C)C)ccc1OCCOCCOCCO2 was tested, and the TGI was over 100 µM.
CC(=O)[O-].CCN(CC)c1ccc(C=NCCN=Cc2ccc(N(CC)CC)cc2[O-])c([O-])c1.[Mn+3] showed a GI50 of 64.4 µM and a TGI of over 100 µM.
Work on NC(N)=N/N=C(\c1nc2ccc([N+](=O)[O-])cc2[nH]c1=O)C(O)c1ccc([N+](=O)[O-])cc1 (stereo not given) yielded a TGI of over 100 µM.
For COc1cc2nc3cc([N+](=O)[O-])ccc3c(NCCCNCCO)c2cc1OC, the GI50 was 0.196 µM and the TGI was 0.505 µM.
With CCC[CH2][Sn]1([CH2]CCC)[O]CC(CN2CCCC2)[O]1 (stereo not given) the GI50 was 21.9 µM and the TGI was 64.1 µM.
CC1(C)C(=O)N(CCCCCCN2C(=O)C(C)(C)c3ccccc32)c2ccccc21 showed a TGI of 87.2 µM.
Compound NCCCCN(CCCN)/[N+]([O-])=N\O has a TGI of over 100 µM.
With CCOC(=O)c1c(C)n(Cc2ccc(Cl)cc2Cl)c2c1c(CN(C)C)c(O)c1[nH]cnc12 the GI50 was 17.8 µM and the TGI was 33.4 µM.
CCOc1ccccc1NC(=O)CC(C(=O)OC)C(=O)C(=O)OC (stereo not given) was tested, and the TGI was over 100 µM.
With C[C@@]12CC=C3c4nc(Nc5cccc(O)c5)sc4CC[C@]3(C)[C@H]1CC[C@]1(C)C(=O)CC[C@@H]21 the GI50 was 2.86 µM and the TGI was 8.94 µM.
For COC(=O)C1=C(C)N(NC(=O)OC(C)(C)C)C(=O)C1=P(c1ccccc1)(c1ccccc1)c1ccccc1, the TGI was over 100 µM.
For O=C1OC(c2ccccc2)=N/C1=C\c1cccc2ccccc12, the TGI was over 100 µM.
C[C@@H]1CC(=O)C2CCCC1C2=O (stereo not given in full) was tested, and the TGI was over 100 µM.
With Oc1cccnc1CN1CCCCC1 the TGI was over 100 µM.

These compounds were tested on SK-MEL-5 melanoma (assay: NCI-60 cell line screen, 48 h).
Cc1nc(N)sc1C(=O)/C=C\c1ccc2c(c1)OCO2 was tested, and the TGI was over 100 µM.
COc1cc(C(C)O)c[n+](CCc2c[nH]c3ccccc23)c1 (stereo not given) gave a TGI of over 100 µM.
For CN1CCN(CCCOc2ccc3nc(Nc4ccc(Cl)c(C(F)(F)F)c4)ccc3c2)CC1, the GI50 was 15.1 µM and the TGI was 29.1 µM.
With CC1(C)SCc2nc3ncccc3n21 the TGI was over 100 µM.
Cn1c(=O)c(C(c2ccc([N+](=O)[O-])cc2)c2c(O)c3ccccc3n(C)c2=O)cc2ccccc21 (stereo not given) showed a TGI of over 100 µM.
Cc1cn(C2CC(O)C(CO)O2)c(=O)n2nnnc12 (stereo not given) was tested, and the TGI was over 100 µM.
COc1ccc(C(=O)C(C(=O)CCC(=O)Nc2cccc(Cl)c2)c2ccc(OC)cc2)cc1 (stereo not given) was tested, and the TGI was over 100 µM.
With CCOC(=O)C1=C(C)N(NC(=O)Nc2ccccc2)C(=O)C1=P(c1ccccc1)(c1ccccc1)c1ccccc1 the TGI was over 100 µM.
COc1cc(C=C2C(=O)NC(=O)NC2=O)cc(OC)c1OC showed a TGI of over 100 µM.
For Nn1c(=O)n(Cc2ccccc2)n(-c2ccccc2)c1=O, the TGI was over 100 µM.
OC[C@H]1CCCC1O (stereo not given in full) was tested, and the TGI was over 100 µM.
Work on Cc1cc(C(=O)Nc2ncc(Cc3cccc(C(F)(F)F)c3)s2)c2ccccc2n1 yielded a GI50 of 1.03 µM and a TGI of over 100 µM.
Cc1ccc(C2=C(c3ccccc3)C(Br)(c3ccc(C)cc3)C(c3ccccc3)=C2c2ccc(C)cc2)cc1 gave a TGI of over 100 µM.
N#CCN1C(=O)c2cccc3cc([N+](=O)[O-])cc(c23)C1=O gave a TGI of over 100 µM.
For O=C1OC(C(O)CO)C(=O)C1=O (stereo not given), the GI50 was over 10000 µM and the TGI was over 10000 µM.
C=C1C(=O)O[C@H]2[C@H]1CC/C(COC(=O)C(=O)c1cn(Cc3ccccc3)c3ccccc13)=C\CC[C@@]1(C)O[C@@H]21 showed a GI50 of 1.99 µM and a TGI of 4.1 µM.
Compound Clc1nc(Cl)c(Cl)c(-c2ccccc2)n1 has a TGI of 11.8 µM.
Compound CC1CC[C@]2(C(=O)O)CCC3(C)C(=CC(=O)C4[C@@]5(C)CCC(=O)C(C)(C)C5CC[C@]43C)[C@@H]2[C@H]1C (stereo not given in full) has a TGI of over 100 µM.
COC(C(O)CO)C(O)C(O)C(=O)NNc1ccccc1 (stereo not given) showed a TGI of over 100 µM.
COc1ccccc1CCc1cc(OC)c(OC)c(OC)c1 was tested, and the TGI was 42.7 µM.
Work on COc1cc2c(cc1OC)C(CC(=O)NN=C(C)C)NCC2 (stereo not given) yielded a TGI of over 100 µM.
For Cc1cccc(NC(=O)C(=O)C(C(=O)c2ccc3ccccc3c2)C2OC(=O)c3ccccc32)c1C (stereo not given), the TGI was 25.9 µM.
With CS/C(N)=N\NC(=O)CCC(=O)Nc1ccccc1C(F)(F)F the TGI was over 100 µM.
Compound CC(C)(C)c1ccc2c(c1)S(=O)(=O)Nc1ccccc1NS(=O)(=O)c1cc(C(C)(C)C)ccc1OCCOCCOCCO2 has a TGI of over 100 µM.
For CC(=O)[O-].CCN(CC)c1ccc(C=NCCN=Cc2ccc(N(CC)CC)cc2[O-])c([O-])c1.[Mn+3], the GI50 was 19 µM and the TGI was 33.9 µM.
Compound NC(N)=N/N=C(\c1nc2ccc([N+](=O)[O-])cc2[nH]c1=O)C(O)c1ccc([N+](=O)[O-])cc1 (stereo not given) has a TGI of over 100 µM.
For CCC[CH2][Sn]1([CH2]CCC)[O]CC(CN2CCCC2)[O]1 (stereo not given), the GI50 was 17.9 µM and the TGI was 33.4 µM.
Work on CC1(C)C(=O)N(CCCCCCN2C(=O)C(C)(C)c3ccccc32)c2ccccc21 yielded a TGI of 33.5 µM.
